We go through two compounds from ChEMBL document CHEMBL2203271, “Pharmaceutical composition comprising indole compound for treatment of diseases associated with oxidative stress: patent highlight” (ACS Med Chem Lett, 2012).

Usually IC50 stands for the point on the concentration scale where inhibition reaches its midpoint.

In the experiment the test system is H9c2. Nature of the experiment: Cytoprotective activity against tBOOH-induced oxidative stress in rat H9c2 cells after 2 hrs by SRB assay. The format is functional, cell-based. Conditions: H9c2, 2 h. (In general: Sulforhodamine B stains cellular protein and so reports cell mass.)

Compound `c1ccc(-c2nc3cccc(NC4CCOC4)c3[nH]2)cc1` (configuration not stated) gave an IC50 of 2000 nM.
Take `c1ccc(-c2nc3cccc(NC4CCCC4)c3[nH]2)cc1`: it took 600 nM to reach half-maximal inhibition (IC50).
